Values after ≈ are worked out from the molar mass of the structure shown. Read-outs that look alike come from different tables or passages of the source.
Legend:
[1] = Cytotoxicity by MTT method in MT-4 cells; format: cell-based; conditions: human
[2] = test system: HIV-1 (HTLV-IIIB); assay: microbe, parasite or virus in culture; format: cell-based; conditions: Human immunodeficiency virus 1, IIIB, MT4, 120 h; MT-4 cells, 100 CCID50, 5 days, MTT; read-out: IC50 HIV-1 (IIIB)
[3] = test system: Jurkat cells; assay: Growth of exponentially growing cells (cell numbers); format: cell-based; conditions: concentrations below 300 μg/ml; cell numbers 2, 3 and 4 days after seeding
[4] = test system: HIV-1 IIIb, RF, HE and NDK strains; assay: microbe, parasite or virus in culture; conditions: Human immunodeficiency virus 1, IIIB, MT4, read-out: IC50 against IIIb, RF, HE and NDK strains
Protocol: The compounds of the invention were tested in a screen by the MTT method (I Vixol Methods […] [1988]). MT-4 cells (2.5×10^4/well) were challenged with HIV-1 (HTLV-IIIB) or HIV-2 (LAV-2 ROD) at a concentration of 100 CCID50 and incubated in the presence of various concentrations of the test compounds, which were added immediately after challenge with the virus. After 5 days culture at 37° C. in a CO2 incubator, the number of viable cells was assessed by the MTT (tetrazolium) method. […] The potential therapeutic usefulness was assessed by calculating a Selectivity Index (SI) corresponding to the ratio of CC50 to IC50.

[5] = test system: HIV-1, strain IIIb; assay: microbe, parasite or virus in culture; format: cell-based
Protocol: Adsorption was allowed for 2 hours at 37° C. […] Test compound was added after stimulation and virus adsorption.
(§1) IC50 and IC90 values were calculated by comparing the p24 antigen concentrations in supernatent of treated, infected cells and uncreated, infected cells at days 11 and 14 post infection.

[6] = test system: HUT78 cells; conditions: concentrations below 300 μg/ml; cell numbers 2, 3 and 4 days after seeding
[7] = test system: gp120/41 mediated fusion; conditions: HIV-1 IIIb infected HUT78 cells with MOLT4 cells
Excerpt: Syncytium formation between chronically infected cells and uninfected cells reflects the gp120/41 mediated fusion process of vital entry.

[8] = test system: low-passage primary clinical isolates of HIV-1 (K31, D370, K6/2); conditions: primary T4 cells; isolates K31 Zaire, D370 California, K6/2 Germany
Protocol: Primary T4 lymphocytes were purified from human spleens obtained from healthy donors by using a commercial kit (“Lympho-Kwik”) which combines reaction of cells with specific monoclonal antibodies and density gradient centrifugation to separate the cells. […] Cells were stimulated with 2 μg/ml PHA for 24 hours. Then they were spun down and infected with HIV-1, strain IIIb, by suspending the cells 10-fold concentrated in virus solution. Adsorption was allowed for 2 hours at 37° C. The inoculum was removed by centrifugation and the cells were re-suspended at their original concentration in fresh culture medium containing IL-2 (40 IE/ml). Test compound was added after stimulation and virus adsorption. Every 3 to 4 days post infection half of the supernatant of the infected cultures was removed and replaced by fresh medium containing the test compound at the particular concentration, The concentration of vital p24 antigen was determined in the supernatent by means of a commercial ELISA kit (Coulter) and served as a parameter for virus production.

[9] = test system: MT4 cells; conditions: concentrations below 300 μg/ml; cell numbers 2, 3 and 4 days after seeding
[10] = test system: HIV uncoating (or fusion); assay: Sensitivity of viral RNA from freshly infected MT4 cells to RNase degradation (uncoating); format: cell-based; conditions: radiolabelled viral particles, RNA harvested 4 hours after infection
Excerpt: It was reasoned that if tincoating (fusion) was hampered, the viral capsid (or envelope) proteins would remain associated with the viral RNA genome and thus the RNA should be protected against RNase attack.

[11] = test system: U937 cell line; conditions: concentrations below 300 μg/ml; cell numbers 2, 3 and 4 days after seeding
[12] = test system: HIV-1, BaL; assay: microbe, parasite or virus in culture; format: cell-based
Protocol: Mononuclear cells were isolated from healthy, HIV-negative donors using Ficoll density separation. Cells (4×10^6/ml) were incubated for 5 days in 48 well plates (Costar) in monocyte medium consisting of RPMII640, supplemented with 20% ECS and 10% human serum. On day 5 non-adherent cells were washed out four times with warm PBS containing 2% human serum.
The monocytotropic strain of HIV-1, BaL, was used for the infection of these monocyte preparations (Pemo et al, 1 Exp Meal, 169, 933, 1989).
Adherent monocytes were exposed to […] of a 1:30 dilution of HIV-1, BaL for 30 minutes subsequently, monocyte medium was added to 1 ml/well. Adsorption was allowed for 24 hours at 37° C. Then, the wells were washed twice in order to remove excess virus and were cultivated in the presence of different drug concentrations. Thus, test compounds were added after adsorption. Every 3 to 4 days post infection the supernatant of the infected cultures was removed and replaced by fresh medium containing the test compound at the particular concentration. The concentration of viral p24 antigen was determined as described above.
as §1

[13] = test system: MOLT4 cells; conditions: concentrations below 300 μg/ml; cell numbers 2, 3 and 4 days after seeding
[14] = test system: HIV-2 (LAV-2 ROD); assay: MTT anti-viral screen, MT-4 cells challenged with HIV-2; format: cell-based; conditions: Human immunodeficiency virus 2, MT4, 120 h, read-out: IC50 HIV-2 (ROD)

In the case of c1cc(CN2CCCNCCNCCCNCC2)ccc1CN1CCCNCCNCCCNCC1 [Compound B, 1,1′-[1,4-phenylenebis(methylene)]bis-1,4,8,11-tetraazacyclotetradecane], the CC50 at 5 days ([1]; CC50 (HIV-1 (IIIB))) is reported as > 500000 ng/mL, the CC50 at 5 days ([1]; CC50 (HIV-2 (ROD))) is reported as > 500000 ng/mL and the IC50 [2] is reported as 6 ng/mL (≈ 11.9 nM). For the same compound, the “inhibition of cell growth” value [3] was “did not inhibit growth”, the IC50 [4] was 2 to 5 ng/mL (≈ 3.98 to 9.94 nM) and the IC90 ([5]; Human immunodeficiency virus 1, IIIB, Lymphocyte, primary T4 lymphocytes, stated for both primary cell types, read-out: IC90 values) was 1 to 2 ng/mL (≈ 1.99 to 3.98 nM). For the same compound, the IC50 ([5]; Human immunodeficiency virus 1, Lymphocyte, 264 h, Lymphocytes, HIV-1 IIIb, p24, day 11 post infection, read-out: IC50 day 11) was < 1 ng/mL, the IC90 ([5]; Human immunodeficiency virus 1, Lymphocyte, 264 h, Lymphocytes, HIV-1 IIIb, p24, day 11 post infection, read-out: IC90 day 11) was < 1 ng/mL and the IC50 ([5]; Human immunodeficiency virus 1, Lymphocyte, 336 h, Lymphocytes, HIV-1 IIIb, p24, day 14 post infection, read-out: IC50 day 14) was < 1 ng/mL. The IC90 ([5]; Human immunodeficiency virus 1, Lymphocyte, 336 h, Lymphocytes, HIV-1 IIIb, p24, day 14 post infection, read-out: IC90 day 14) was 1 ng/mL (≈ 1.99 nM), the “inhibition of cell growth” value [6] was “did not inhibit growth” and the “concentrations required for inhibition of fusion (syncytium formation)” value [7] was “approximately 1 μg/ml”. For the same compound, the “inhibition of viral replication” value [8] was “strong inhibitor”, the “inhibition of cell growth” value [9] was “did not inhibit growth” and the “resistance of viral RNA to degradation by RNase” value [10] was “showed resistance to degradation by RNaseA”. For the same compound, the “inhibition of cell growth” value [11] was “did not inhibit growth”, the IC90 ([12]; Human immunodeficiency virus 1, BAL, Monocyte, primary monocytes, stated for both primary cell types, read-out: IC90 values) was 1 to 2 ng/mL (≈ 1.99 to 3.98 nM) and the IC50 ([12]; Human immunodeficiency virus 1, Monocyte, 264 h, Monocytes, HIV-1 BaL, p24, day 11 post infection, read-out: IC50 day 11) was < 1 ng/mL. The IC90 ([12]; Human immunodeficiency virus 1, Monocyte, 264 h, Monocytes, HIV-1 BaL, p24, day 11 post infection, read-out: IC90 day 11) was 1.9 ng/mL (≈ 3.78 nM), the IC50 ([12]; Human immunodeficiency virus 1, Monocyte, 336 h, Monocytes, HIV-1 BaL, p24, day 14 post infection, read-out: IC50 day 14) was 1.1 ng/mL (≈ 2.19 nM) and the IC90 ([12]; Human immunodeficiency virus 1, Monocyte, 336 h, Monocytes, HIV-1 BaL, p24, day 14 post infection, read-out: IC90 day 14) was 2.1 ng/mL (≈ 4.18 nM). The “inhibition of cell growth” value [13] was “did not inhibit growth” and the IC50 [14] was < 10 ng/mL.

Source: patent USRE42152E1, “Aromatic-linked polyamine macrocyclic compounds with anti-HIV activity” (Genzyme Corporation, priority 1992, dated 2011)
